In ChEMBL document CHEMBL1201862, “PubChem BioAssay data set” (2004):
Each block holds one molecule with its values, some of them ahead of it. The source made the active and inactive calls.

How the values were obtained:
[1] = biological target: Sphingosine 1-phosphate receptor 2 (Homo sapiens, UniProt O95136); assay: Dose Response Cell Based Assay for Antagonists of the S1P2 Receptor. [Related pubchem assays: 856, 736 ]; assay type: functional
[2] = biological target: T1, Calpain-2 catalytic subunit (Sus scrofa, UniProt P43367); assay: m-calpain protease blockers, concentration series – biochemical, fluorogenic peptide substrate, dose response (AID 1420); assay type: functional
T1 sequence (P43367 whole entry): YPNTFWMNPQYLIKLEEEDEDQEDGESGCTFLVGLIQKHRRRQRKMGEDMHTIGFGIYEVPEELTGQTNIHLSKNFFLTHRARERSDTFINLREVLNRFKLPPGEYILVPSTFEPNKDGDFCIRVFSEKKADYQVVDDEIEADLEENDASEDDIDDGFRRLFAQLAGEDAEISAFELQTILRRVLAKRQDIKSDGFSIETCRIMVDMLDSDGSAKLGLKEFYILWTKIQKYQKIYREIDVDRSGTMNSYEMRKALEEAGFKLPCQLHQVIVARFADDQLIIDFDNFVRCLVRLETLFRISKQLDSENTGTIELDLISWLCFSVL

[3] = viability loss in A549 lung cells – cell-based, 24 h, CellTiter-Glo luminescence, cherry-picks, cytotoxicity control, dose response (AID 1053115); assay type: functional; conditions: A549, 24 h
[4] = biological target: Diphosphomevalonate decarboxylase (Streptococcus pneumoniae serotype 2 (strain D39 / NCTC 7466), UniProt Q9FD53); assay: diphosphomevalonate decarboxylase inhibitor confirmation – biochemical, cuvette format, coupled NADH fluorescence (AID 1028); assay type: functional
Diphosphomevalonate decarboxylase, sequence (Q9FD53 whole entry): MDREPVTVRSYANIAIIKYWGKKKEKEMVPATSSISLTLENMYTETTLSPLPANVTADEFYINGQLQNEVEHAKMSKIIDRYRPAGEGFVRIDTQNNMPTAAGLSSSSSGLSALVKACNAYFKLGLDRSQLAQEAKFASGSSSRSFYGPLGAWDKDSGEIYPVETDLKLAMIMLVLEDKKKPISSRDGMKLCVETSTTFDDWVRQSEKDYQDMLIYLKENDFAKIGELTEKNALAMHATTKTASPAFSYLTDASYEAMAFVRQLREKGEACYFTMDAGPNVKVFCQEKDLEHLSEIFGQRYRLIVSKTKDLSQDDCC

[5] = biological target: Peroxisome proliferator-activated receptor gamma/Nuclear receptor corepressor 2 (Homo sapiens, UniProt P37231+Q9Y618); assay: Counterscreen for NR2E3 inverse agonists: TR-FRET-based biochemical high throughput dose response assay to identify inverse agonists of the interaction between peroxisome proliferator-activated receptor gamma (PPARg) and nuclear receptor co-repressor 2 (NCOR2).; assay type: functional
Peroxisome proliferator-activated receptor gamma/Nuclear receptor corepressor 2, sequence (P37231 whole entry): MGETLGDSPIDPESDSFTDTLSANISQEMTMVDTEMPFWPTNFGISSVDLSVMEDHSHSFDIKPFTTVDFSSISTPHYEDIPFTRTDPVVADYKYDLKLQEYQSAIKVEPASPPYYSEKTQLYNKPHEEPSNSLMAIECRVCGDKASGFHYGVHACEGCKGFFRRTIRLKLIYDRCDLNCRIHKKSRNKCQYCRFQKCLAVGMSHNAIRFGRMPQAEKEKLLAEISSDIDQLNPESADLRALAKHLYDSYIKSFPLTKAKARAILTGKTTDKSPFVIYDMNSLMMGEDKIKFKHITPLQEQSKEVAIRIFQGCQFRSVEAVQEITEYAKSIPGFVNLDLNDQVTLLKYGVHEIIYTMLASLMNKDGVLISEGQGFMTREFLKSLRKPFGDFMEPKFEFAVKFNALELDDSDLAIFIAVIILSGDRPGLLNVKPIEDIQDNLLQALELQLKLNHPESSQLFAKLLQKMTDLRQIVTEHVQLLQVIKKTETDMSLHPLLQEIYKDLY
Peroxisome proliferator-activated receptor gamma/Nuclear receptor corepressor 2, sequence (Q9Y618 whole entry): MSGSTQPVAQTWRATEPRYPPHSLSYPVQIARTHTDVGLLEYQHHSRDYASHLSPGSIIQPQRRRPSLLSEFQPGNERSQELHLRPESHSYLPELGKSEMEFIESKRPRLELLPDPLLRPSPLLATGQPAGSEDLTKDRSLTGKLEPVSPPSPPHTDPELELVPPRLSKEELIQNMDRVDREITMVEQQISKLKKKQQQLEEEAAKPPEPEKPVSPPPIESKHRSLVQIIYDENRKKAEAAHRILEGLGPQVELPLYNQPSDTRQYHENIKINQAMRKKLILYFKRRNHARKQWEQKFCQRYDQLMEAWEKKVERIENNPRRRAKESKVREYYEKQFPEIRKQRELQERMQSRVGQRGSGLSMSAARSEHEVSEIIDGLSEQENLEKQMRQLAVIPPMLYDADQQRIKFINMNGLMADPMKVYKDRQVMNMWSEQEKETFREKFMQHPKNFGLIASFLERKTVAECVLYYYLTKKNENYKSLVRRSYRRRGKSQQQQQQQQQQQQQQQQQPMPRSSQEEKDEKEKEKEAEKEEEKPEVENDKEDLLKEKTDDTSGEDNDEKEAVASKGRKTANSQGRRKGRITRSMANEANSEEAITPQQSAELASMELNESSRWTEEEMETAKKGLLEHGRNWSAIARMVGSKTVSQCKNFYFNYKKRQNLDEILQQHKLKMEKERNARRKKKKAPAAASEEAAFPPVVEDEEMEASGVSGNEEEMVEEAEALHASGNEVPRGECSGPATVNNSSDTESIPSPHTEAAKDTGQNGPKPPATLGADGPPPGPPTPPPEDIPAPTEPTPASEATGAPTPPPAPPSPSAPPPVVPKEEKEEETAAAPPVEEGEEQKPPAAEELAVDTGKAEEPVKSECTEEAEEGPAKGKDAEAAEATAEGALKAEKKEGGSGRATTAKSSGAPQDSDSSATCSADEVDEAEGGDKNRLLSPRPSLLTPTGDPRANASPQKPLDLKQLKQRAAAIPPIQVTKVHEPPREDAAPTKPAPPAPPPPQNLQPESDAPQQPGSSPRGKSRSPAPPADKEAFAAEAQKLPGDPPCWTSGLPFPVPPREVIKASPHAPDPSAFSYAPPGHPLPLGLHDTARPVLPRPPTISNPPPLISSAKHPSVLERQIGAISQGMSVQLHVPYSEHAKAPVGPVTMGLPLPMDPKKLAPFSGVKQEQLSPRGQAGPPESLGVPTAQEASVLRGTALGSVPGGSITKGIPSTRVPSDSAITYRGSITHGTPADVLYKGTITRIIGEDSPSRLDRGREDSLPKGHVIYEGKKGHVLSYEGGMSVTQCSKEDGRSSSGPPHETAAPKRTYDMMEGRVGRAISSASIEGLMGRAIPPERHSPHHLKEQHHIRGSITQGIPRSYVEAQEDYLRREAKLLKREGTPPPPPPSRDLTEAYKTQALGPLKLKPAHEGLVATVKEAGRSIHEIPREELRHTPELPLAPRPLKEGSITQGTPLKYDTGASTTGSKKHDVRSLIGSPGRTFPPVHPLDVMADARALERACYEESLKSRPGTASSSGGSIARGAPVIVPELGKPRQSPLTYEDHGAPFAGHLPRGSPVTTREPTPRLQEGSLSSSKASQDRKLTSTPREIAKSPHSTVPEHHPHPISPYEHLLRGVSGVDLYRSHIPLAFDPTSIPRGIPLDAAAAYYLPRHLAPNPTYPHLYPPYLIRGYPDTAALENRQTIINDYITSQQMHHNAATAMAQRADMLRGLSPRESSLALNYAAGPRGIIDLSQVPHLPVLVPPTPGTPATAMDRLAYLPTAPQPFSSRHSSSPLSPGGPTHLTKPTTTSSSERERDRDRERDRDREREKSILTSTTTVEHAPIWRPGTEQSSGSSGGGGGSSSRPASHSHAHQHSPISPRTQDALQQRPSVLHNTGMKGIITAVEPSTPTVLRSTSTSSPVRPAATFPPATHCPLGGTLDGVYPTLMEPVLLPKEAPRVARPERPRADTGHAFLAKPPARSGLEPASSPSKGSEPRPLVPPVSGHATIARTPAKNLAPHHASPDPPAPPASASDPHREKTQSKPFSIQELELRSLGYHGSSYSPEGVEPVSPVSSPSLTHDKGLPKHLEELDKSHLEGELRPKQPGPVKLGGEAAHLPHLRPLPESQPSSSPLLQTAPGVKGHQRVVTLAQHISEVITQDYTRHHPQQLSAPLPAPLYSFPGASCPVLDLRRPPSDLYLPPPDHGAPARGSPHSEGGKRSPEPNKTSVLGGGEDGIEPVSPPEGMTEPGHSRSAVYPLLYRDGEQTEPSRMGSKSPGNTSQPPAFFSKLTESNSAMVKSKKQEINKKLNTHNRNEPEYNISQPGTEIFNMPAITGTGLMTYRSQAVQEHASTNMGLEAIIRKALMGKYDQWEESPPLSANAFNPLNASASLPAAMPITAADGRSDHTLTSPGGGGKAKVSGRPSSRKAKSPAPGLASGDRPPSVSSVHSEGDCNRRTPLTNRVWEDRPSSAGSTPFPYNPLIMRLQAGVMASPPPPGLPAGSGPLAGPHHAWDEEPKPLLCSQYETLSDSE

[6] = biological target: Photoreceptor-specific nuclear receptor (Homo sapiens, UniProt Q9Y5X4); assay: ligands suppressing NR2E3 nuclear receptor activity – biochemical, TR-FRET, dose response (AID 463256); assay type: functional
Photoreceptor-specific nuclear receptor, sequence (Q9Y5X4 whole entry): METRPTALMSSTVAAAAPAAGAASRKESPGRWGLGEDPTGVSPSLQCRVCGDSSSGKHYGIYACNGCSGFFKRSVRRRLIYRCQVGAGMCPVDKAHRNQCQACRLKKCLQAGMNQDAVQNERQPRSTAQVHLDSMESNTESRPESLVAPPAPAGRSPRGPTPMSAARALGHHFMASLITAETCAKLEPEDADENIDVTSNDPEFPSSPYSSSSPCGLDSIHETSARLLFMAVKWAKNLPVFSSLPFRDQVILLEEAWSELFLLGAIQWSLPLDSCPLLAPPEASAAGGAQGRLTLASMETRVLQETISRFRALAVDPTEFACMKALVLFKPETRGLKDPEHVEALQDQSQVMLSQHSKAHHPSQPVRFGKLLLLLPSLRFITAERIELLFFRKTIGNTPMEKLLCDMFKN

Cytochrome P450 1A2 = biological target: T2, Cytochrome P450 1A2 (Homo sapiens, UniProt P05177);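 also: PubChem cytochrome P450 panel assay, CYP1A2 panel member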
T2 sequence (P05177 whole entry): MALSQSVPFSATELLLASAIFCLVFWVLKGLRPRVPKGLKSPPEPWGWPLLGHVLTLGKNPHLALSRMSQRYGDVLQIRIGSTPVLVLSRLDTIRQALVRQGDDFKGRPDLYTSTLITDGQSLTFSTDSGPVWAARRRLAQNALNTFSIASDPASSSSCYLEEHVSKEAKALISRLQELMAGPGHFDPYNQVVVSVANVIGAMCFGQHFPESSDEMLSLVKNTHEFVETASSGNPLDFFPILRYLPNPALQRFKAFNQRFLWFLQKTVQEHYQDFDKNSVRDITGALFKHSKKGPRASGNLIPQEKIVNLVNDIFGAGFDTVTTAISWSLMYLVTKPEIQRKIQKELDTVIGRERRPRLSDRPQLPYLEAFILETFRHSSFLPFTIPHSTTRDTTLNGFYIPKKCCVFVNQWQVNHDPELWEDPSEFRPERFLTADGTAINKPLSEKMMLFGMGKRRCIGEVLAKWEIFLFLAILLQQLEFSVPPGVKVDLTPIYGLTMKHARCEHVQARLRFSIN

Cytochrome P450 3A4 = Cytochrome P450 3A4 (Homo sapiens, UniProt P08684);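 also: CYP3A4 tested as one member of a cytochrome P450 panel screen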
Cytochrome P450 3A4, sequence (P08684 whole entry): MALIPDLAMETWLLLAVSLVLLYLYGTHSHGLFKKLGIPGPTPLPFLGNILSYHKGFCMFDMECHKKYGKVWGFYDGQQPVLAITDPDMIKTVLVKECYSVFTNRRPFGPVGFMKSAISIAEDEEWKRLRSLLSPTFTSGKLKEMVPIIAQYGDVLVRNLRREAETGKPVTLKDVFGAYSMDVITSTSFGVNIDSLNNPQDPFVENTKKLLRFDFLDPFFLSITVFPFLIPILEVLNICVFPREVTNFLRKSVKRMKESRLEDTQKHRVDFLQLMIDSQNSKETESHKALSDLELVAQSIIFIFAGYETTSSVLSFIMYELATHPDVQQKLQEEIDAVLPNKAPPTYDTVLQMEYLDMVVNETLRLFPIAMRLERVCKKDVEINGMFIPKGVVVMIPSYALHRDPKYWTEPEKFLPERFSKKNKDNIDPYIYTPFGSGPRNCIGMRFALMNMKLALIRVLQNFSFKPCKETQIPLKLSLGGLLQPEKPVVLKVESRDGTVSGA

[7] = Late-stage results from the probe development effort to identify antagonists of arginine vasopressin receptor 1a (AVPR1a): fluorescence-based cell-based dose response AVPR1a inhibition assay.; assay type: functional
Vasopressin V1b receptor = Vasopressin V1b receptor (Homo sapiens, UniProt P47901); assay: Late-stage results from the probe development effort to identify antagonists of arginine vasopressin receptor 1a (AVPR1a): fluorescence-based cell-based dose response AVPR1b inhibition counterscreen assay.; assay type: functional
Vasopressin V2 receptor = Vasopressin V2 receptor (Homo sapiens, UniProt P30518); assay: Late-stage results from the probe development effort to identify antagonists of arginine vasopressin receptor 1a (AVPR1a): fluorescence-based cell-based dose response AVPR2 inhibition counterscreen assay.; assay type: functional
Vasopressin V2 receptor, sequence (P30518 whole entry): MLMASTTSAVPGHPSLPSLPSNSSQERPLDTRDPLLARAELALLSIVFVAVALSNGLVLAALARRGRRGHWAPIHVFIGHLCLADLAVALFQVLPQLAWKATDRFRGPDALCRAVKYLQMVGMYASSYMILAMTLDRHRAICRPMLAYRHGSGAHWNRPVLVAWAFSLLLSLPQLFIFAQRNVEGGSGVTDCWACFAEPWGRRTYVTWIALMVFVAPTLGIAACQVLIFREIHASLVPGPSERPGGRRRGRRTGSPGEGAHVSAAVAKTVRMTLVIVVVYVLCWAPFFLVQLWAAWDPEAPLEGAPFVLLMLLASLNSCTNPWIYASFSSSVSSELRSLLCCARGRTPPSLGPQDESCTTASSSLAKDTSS

[8] = Late-stage results from the probe development effort to identify antagonists of arginine vasopressin receptor 1a (AVPR1a): fluorescence-based cell-based dose response OXTR inhibition counterscreen assay.; assay type: functional
[9] = T. cruzi growth inhibition in host cells, dose response, cell-based, plate reader, dry powder, set 2 (AID 652275); assay type: functional
[10] = Trypanosoma cruzi replication inhibitors in host cells – cell-based, plate reader, dry powder samples, dose response (AID 651845); assay type: functional
[11] = anti-trypanosomal activity in BESM host cells – imaging, CA-I/72 strain, bovine embryo skeletal muscle, dry powder, dose response (AID 651885); assay type: functional, cell-based
[12] = decrease of insulin promoter-GFP reporter – imaging, high-content screening, mouse beta cells (AID 1628); assay type: functional; conditions: MIN6
[13] = MIN6 cell viability loss – mouse insulinoma, cytotoxicity control, dose response (AID 2122); assay type: functional;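 also: confirmatory high-throughput counterscreen run to flag cytotoxic compounds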
[14] = Trypanosoma cruzi growth suppression in host cells – NIH3T3 host cells, beta-gal luminescence, confirmation (AID 2044); assay type: functional, cell-based;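 also: intracellular parasites grown in NIH/3T3 mouse fibroblasts as host cells; luminescent beta-galactosidase reporter signal from transgenic T. cruzi replicating inside host cells; inhibitors lower the luminescence signal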
[15] = NIH3T3 cell viability loss – ATP luminescence, mouse fibroblasts, counter-screen, dose response (AID 2010); assay type: functional, cell-based;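 also: cells exposed to compound for about 90 hours before reading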
Beta-galactosidase = Beta-galactosidase (Escherichia coli, UniProt Q8VNN2); assay: Dose response counterscreen for EBI2 assay utilizing the enzyme, b-galactosidase.; assay type: functional
[16] = viability loss in THP-1 monocytes – THP-1 cells, cytotoxicity control for Vif-APOBEC3G degradation inhibitor project, dose response (AID 1117359); assay type: functional; conditions: THP-1
[17] = HIV-1 Vif–A3G interaction blockers – biochemical, TR-FRET, GST-Vif 1-94, biotin-A3G peptide, dose response retest, primary screen (AID 1117319); assay type: functional;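 also: TR-FRET signal of purified GST-Vif binding a biotinylated A3G peptide; inhibitors lower the FRET signal by blocking Vif and A3G binding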
[18] = viability loss in Vero cells – cytotoxicity control for Vif-APOBEC3G degradation inhibitor project, dose response (AID 1117358); assay type: functional; conditions: Vero

Sphingosine 1-phosphate receptor 2, sequence (O95136 whole entry): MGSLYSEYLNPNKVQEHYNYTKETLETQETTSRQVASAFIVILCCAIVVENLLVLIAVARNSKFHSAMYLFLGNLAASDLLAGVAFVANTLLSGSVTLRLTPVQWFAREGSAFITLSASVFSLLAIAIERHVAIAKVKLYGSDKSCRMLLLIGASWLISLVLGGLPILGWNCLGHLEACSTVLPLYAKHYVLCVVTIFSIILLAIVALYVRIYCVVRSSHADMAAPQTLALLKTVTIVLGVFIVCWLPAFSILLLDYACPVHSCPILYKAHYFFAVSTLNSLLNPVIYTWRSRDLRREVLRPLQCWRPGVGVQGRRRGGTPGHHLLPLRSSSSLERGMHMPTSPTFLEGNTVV

IC50 [1]: > 30 µM (not active) | IC50 [2]: 14.3 µM (not active)
Compound: COC(=O)c1sc2cc(C(F)(F)F)cnc2c1-c1cccnc1

Compound: OC[C@@H]1Nc2ccc(-c3cccc(F)c3)cc2[C@H]2[C@@H]1CCN2Cc1ccc(F)cc1
AC50 [3]: 51.5 µM (active)

Compound: CCN(CC)C(=O)c1ccc(-n2sc3ccccc3c2=O)cc1
IC50 [4]: 19.2 µM (active)

IC50 [5]: 7.42 µM (active) | IC50 [6]: 5.92 µM (active) | AC50 (Cytochrome P450 1A2): 15.8 µM (inconclusive) | AC50 (Cytochrome P450 3A4): 1 µM (inconclusive)
Compound: COc1ccc(N2C(=O)c3ccccc3NC2c2ccc(OC)c(CSc3ccccn3)c2)cc1 (stereo not drawn)

Compound: O=C(C1CCN(c2ncccc2F)CC1)N(CC1CC1)c1ccc(Cl)cc1
IC50 [7]: 0.015 µM (active) | IC50 (Vasopressin V1b receptor): 11.5 µM (inactive) | IC50 (Vasopressin V2 receptor): 19 µM (inactive) | IC50 [8]: 3.6 µM (active)

Compound: CC(C)N1C[C@H](C)[C@@H](CN(C)Cc2ccc(Oc3ccccc3)cc2)Oc2c(NC(=O)c3ccncc3)cccc2C1=O
AC50 [9]: 0.00111 µM (active) | AC50 [10]: 0.00119 µM (active) | IC50 [11]: 0.00163 µM (active)

Compound: Cc1cccc(S(=O)(=O)c2c(N)n(/N=C/c3ccco3)c3nc4ccccc4nc23)c1
IC50 [12]: 6.02 µM (active) | IC50 [13]: 9.21 µM (active) | EC50 [14]: 2.12 µM (active) | EC50 [15]: 12 µM (active) | IC50 (Beta-galactosidase): > 80 µM (inactive) | CC50 [16]: > 40 µM (active) | IC50 [17]: > 55.3 µM (active) | CC50 [18]: > 40 µM (active)
